Results: patent US4898876A, “Benzoylpiperazine esters and a process for their production” (Kowa Co., Ltd., priority 1982, dated 1990)
Counter-ions that a name gives are not always drawn.

Target: chymotrypsin (Bos taurus, UniProt P00766)
Assay: Chymotrypsin inhibitive activity (method of Muramatsu et al., acetyl-L-tyrosine ethyl ester substrate, Hestrin Method)
Assay type: biochemical
Settings: pH 8.0 tris-hydrochloric acid buffer, 10 minutes preincubation, 30° C., 30 minutes, absorbance at 530 nm, read-out: Chymotrypsin inhibitive activity [50% inhibition concentration (M)]
Method: A solution prepared by mixing 0.1 ml of a dimethylsulfoxide solution containing a compound to be tested, 0.1 ml of water and 0.1 ml of a buffer solution containing 10 ug/ml of chymotrypsin (0.1M tris-hydrochloric acid buffer solution, pH 8.0) was incubated for 10 minutes by the method of Muramatsu et al. [see The Journal of Biochemistry, 62, 408 (1967)]. 0.2 ml of a buffer solution containing 25 mM of an acetyl-L-tyrosine ethyl ester was mixed with the above-prepared solution and reacted at 30° C. for 30 minutes. The amount of the remaining substrate was determined by causing the same to develop color by the Hestrin Method and measuring the absorbance at 530 nm. For comparative purposes, use was made of tosylphenylalanine chloromethyl ketone which was known as a chymotrypsin inhibitor (Comparative Compound I).

Row | SMILES | IC50
1 | CC(C)N1CCN(C(=O)c2ccc(OC(=O)C=C3c4ccccc4-c4ccccc43)cc2)CC1 [Example 2, 1-Isopropyl-4-[4-(9-fluorenylideneacetyloxy)benzoyl]piperazine] | 1e-07 M
2 | CC1CCC(C(=O)Oc2ccc(C(=O)N3CCN(C(C)C)CC3)cc2)c2ccccc21 (stereo not shown) [Example 15] | 8e-07 M
3 | CC(C)N1CCN(C(=O)c2ccc(OC(=O)C3CCCc4cc(Cl)ccc43)cc2)CC1 (stereo not shown) [Example 17] | 8e-07 M
4 | Cc1ccc2c(c1)CCCC2C(=O)Oc1ccc(C(=O)N2CCN(C(C)C)CC2)cc1 (stereo not shown) [Example 18] | 6e-07 M
5 | CC(C)N1CCN(C(=O)c2ccc(OC(=O)C3C=CCc4cc(Cl)ccc43)cc2)CC1 (stereo not shown) [Example 21] | 9e-06 M
6 | CC(C)N1CCN(C(=O)c2ccc(OC(=O)CC3c4ccccc4-c4ccccc43)cc2)CC1 [Example 40] | 1e-06 M
7 | COc1ccc2c(c1)C(C(=O)Oc1ccc(C(=O)N3CCN(C)CC3)cc1)CCC2 (stereo not shown) [Example 65, 1-Methyl-4-[4-(7-methoxyl-1,2,3,4-tetrahydro-1-naphtoyloxy)benzoyl]piperazine.methanesulfonate] | 8e-07 M
8 | O=C(Oc1ccc(C(=O)N2CCN(C3CCCCC3)CC2)cc1)C1CCCc2ccccc21 (stereo not shown) [Example 66] | 9e-07 M
9 | CCN1CCN(C(=O)c2ccc(OC(=O)C3CCCc4ccccc43)cc2)CC1 (stereo not shown) [Example 68] | 9e-07 M

Results, then the molecule that gave them:

Row | IC50 | SMILES
10 | 3e-06 M | CC(C)N1CCN(C(=O)c2ccc(OC(=O)Cc3cccc4c3CCCC4)cc2)CC1 [Example 1, 1-Isopropyl-4-[4-(5,6,7,8-tetraphydronaphthalene-1-acetyloxy)benzoyl]piperazine.hydrochloride]
11 | 9e-07 M | CC(C)N1CCN(C(=O)c2ccc(OC(=O)Cc3cc4ccccc4s3)cc2)CC1 [Example 3]
12 | 5e-06 M | CC(C)N1CCN(C(=O)c2ccc(OC(=O)C3CCc4ccccc43)cc2)CC1 (stereo not shown) [Example 4]
13 | 1e-06 M | COc1ccc2c(c1)C(CC(=O)Oc1ccc(C(=O)N3CCN(C(C)C)CC3)cc1)=CC2 [Example 9]
14 | 5e-06 M | CC(C)N1CCN(C(=O)c2ccc(OC(=O)C3=Cc4ccccc4CC3)cc2)CC1 [Example 20]
15 | 3e-06 M | CC(C)N1CCN(C(=O)c2ccc(OC(=O)CC3=CCCc4ccccc43)cc2)CC1 [Example 22]
16 | 5e-07 M | CC(C)N1CCN(C(=O)c2ccc(OC(=O)Cc3cccc4ccccc34)cc2)CC1 [Example 24]
17 | 9e-06 M | CC(C)N1CCN(C(=O)c2ccc(OC(=O)COc3ccc4ccccc4c3)cc2)CC1 [Example 30]
18 | 7e-06 M | CC(C)N1CCN(C(=O)c2ccc(OC(=O)CCc3ccc4ccccc4c3)cc2)CC1 [Example 32]
19 | 8e-07 M | CC(C)N1CCN(C(=O)c2ccc(OC(=O)C3CCCc4ccccc43)cc2)CC1 (stereo not shown) [Example 67]
